From patent publication US8273744B2, “AMPK modulators” (priority 2008, dated 2012)

Test system: AMPK
Experiment: In vitro assay of AMPK activity (AlphaScreen, phosphorylation of human ACC1 fragment aa 1-120)
Assay type: biochemical
Details: AMPK partially purified from HEK cells, 100 uM ATP, room temperature, 60 minutes, read-out: ED50 (the source's name)
Experimental: AMPK activity was measured by the phosphorylation of the amino-teminal fragment of human acetyl CoA carboxylase-type 1, amino acids 1-120. The fragment was expressed as a biotinylated fusion protein in E. coli. The enzyme assay was conducted in a 5 ul reaction mixture containing 60 mM HEPES, pH7.0, 50 mM NaCL, 1 mM DTT, 5 mM MgCL2, 0.05% Tween-20, 100 uM ATP and with 25 uM AMP as a positive control. The reaction was carried out at room temperature for 60 minutes and stopped by addition of 5 ul of stop solution consisting of 20 mM EDTA, 0.1% BSA, 1% Triton-X-100, 0.01% Tween-20, 100 mM Tris pH8.0, 1:5,000 dilution of internally producted anti-pS79 (acetyl CoA carboxylase-1) purified rabbit polyclonal antibody, 40 ug/ml of AlphaScreen (Perkin Elmer) Acceptor beads and 40 ug/ml of AlphaScreen (Perkin Elmer) donor beads. The reaction mixture was further incubated at RT for 2 hours and analyzed on Fusion-Alpha microplate analyzer.
The AMPK assay was performed in a 25 ul reaction volume with the same reaction buffer as AMPK alpha assay at 30 C for 30 minutes. The reaction was stopped with SDS-PAGE sample buffer. The phosphorylated-GST-ACC was subjected to western blot analysis with anti-phospho-serine 79-ACC1 antibody (Cell Signaling Technologies). AMPK used in the assays described above was partially purified (Blazquez, C. et. al.).
The AMP-activated protein kinase is involved in the regulation of ketone body production by astrocytes. J. Neurochem. 73: 1674 (1999)) from HEKs (a human embryonic kidney cell line) and unless otherwise specified, chemicals used in the above assay were supplied by Sigma.

EC50 [µM]	Compound
10 to 50	Oc1ccccc1-c1ccc(-c2ccc3[nH]ccc3c2)cc1 [Compound 1, 5-(2-Hydroxybiphenyl)-1H-indole]
≤ 10	N#Cc1c(O)nc2ccc(-c3ccc(-c4ccccc4O)cc3)cc2c1O [Compound 2, 6-(2-Hydroxybiphenyl)-2,4-dihydroxyquinoline-3-carbonitrile]
≤ 10	N#Cc1c(O)nc2cccc(-c3ccc(-c4ccccc4O)cc3)c2c1O [Compound 3, 5-(2-Hydroxybiphenyl)-2,4-dihydroxyquinoline-3-carbonitrile]
10 to 50	O=Cc1c[nH]c2ccc(-c3ccc(-c4ccccc4O)cc3)cc12 [Compound 4, 5-(2-Hydroxybiphenyl)-1H-indole-3-carbaldehyde]
≤ 10	N#Cc1c[nH]c2ccc(-c3ccc(-c4ccccc4O)cc3)cc12 [Compound 5, 5-(2-Hydroxybiphenyl)-1H-indole-3-carbonitrile]
≥ 50	O/N=C/c1c[nH]c2ccc(-c3ccc(-c4ccccc4O)cc3)cc12 [Compound 6, 5-(2-Hydroxybiphenyl)-1H-indole-3-carbaldehyde oxime]
≤ 10	N#Cc1c(O)nc2nc(-c3ccc(-c4ccccc4O)cc3)[nH]c2c1O [Compound 7, 3-(2-Hydroxybiphenyl)-4,6-dihydroxyimidazo[5,4-b]pyridine-5-carbonitrile]
≤ 10	N#Cc1c(O)nc2ncc(-c3ccc(-c4ccccc4O)cc3)cc2c1O [Compound 8, 6-(2-Hydroxybiphenyl)-2,4-dihydroxy-1,8-naphthyridine-3-carbonitrile]
10 to 50	N#Cc1c(O)cc2onc(-c3ccc(-c4ccccc4O)cc3)c2c1O [Compound 9, 3-(2-Hydroxybiphenyl)-4,6-dihydroxyisoxazolo[5,4-b]pyridine-5-carbonitrile]
